Source: patent US10526347B2, “3-(3H-imidazo[4,5-B]pyridin-2-yl)-1H-pyrazolo[3,4-B]pyridine and therapeutic uses thereof” (Samumed, LLC, priority 2014, dated 2020)

Assays:
[1] = tested on: primary human fibroblasts derived from IPF patients (LL29 cells); experiment: Inhibition of the fibrotic process in TGF-β1 treated IPF patient fibroblasts (αSMA staining); assay type: cell-based; conditions: Fibroblast, 96 h, LL29 cells treated with TGF-β1 (20 ng/mL), 4 days, read-out: Inhibition of fibrosis EC50
From the text: The above synthesized compounds were screened using primary human fibroblasts (derived from IPF patients) treated with TGF-β1 to determine their ability to inhibit the fibrotic process.
Primary human fibroblasts derived from IPF patients (LL29 cells) [^1Xiaoqiu Liu, et. al., “Fibrotic Lung Fibroblasts Show Blunted Inhibition by cAMP Due to Deficient cAMP Response Element-Binding Protein Phosphorylation”, Journal of Pharmacology and Experimental Therapeutics (2005), 315(2), 678-687; ^2Watts, K. L., et. al., “RhoA signaling modulates cyclin D1 expression in human lung fibroblasts; implications for idiopathic pulmonary fibrosis”, Respiratory Research (2006), 7(1), 88] were obtained from American Type Culture Collection (ATCC) and expanded in F12 medium supplemented with 15% Fetal Bovine Serum and Penicillin/Streptomycin.
Each compound was dissolved in DMSO as a 10 mM stock and used to prepare compound source plates. Serial dilution (1:2, 11-point dose-response curves from 10 μM to 1.87 nM) and compound transfer was performed using the ECHO 550 (Labcyte, Sunnyvale, Calif.) into 384-well clear bottom assay plates (Greiner Bio-One) with appropriate DMSO backfill for a final DMSO concentration of 0.1%. LL29 cells were plated at 1,500 cells/well in 80 μl/well F12 medium supplemented with 1% Fetal Bovine Serum. One hour after addition of the cells, TGF-β1 (Peprotech; 20 ng/mL) was added to the plates to induce fibrosis (ref. 1 and 2 above). Wells treated with TGF-β1 and containing DMSO were used as controls. Cells were incubated at 37° C. and 5% CO2 for 4 days. Following incubation for 4 days, SYTOX green nucleic acid stain (Life Technologies [Thermo Fisher Scientific]) was added to the wells at a final concentration of 1 uM and incubated at room temperature for 30 min. Cells were then fixed using 4% formaldehyde (Electron Microscopy Sciences), washed 3 times with PBS followed by blocking and permeabilization using 3% Bovine Serum Albumin (BSA; Sigma) and 0.3% Triton X-100 (Sigma) in PBS. Cells were then stained with antibody specific to α-smooth muscle actin (αSMA; Abcam) (ref. 1 and 2 above) in 3% Bovine Serum Albumin (BSA; Sigma) and 0.3% Triton X-100 (Sigma) in PBS, and incubated overnight at 4° C. Cells were then washed 3 times with PBS, followed by incubation with Alexa Flor-647 conjugated secondary antibody (Life Technologies [Thermo Fisher Scientific]) and DAPI at room temperature for 1 hour. Cells were then washed 3 times with PBS and plates were sealed for imaging. αSMA staining was imaged by excitation at 630 nm and emission at 665 nm and quantified using the Compartmental Analysis program on the CellInsight CX5 (Thermo Scientific). Dead or apoptotic cells were excluded from analysis based on positive SYTOX green staining. % of total cells positive for αSMA were counted in each well and normalized to the average of 11 wells treated with TGF-β1 on the same plate using Dotmatics' Studies Software. The normalized averages (fold change over untreated) of 3 replicate wells for each compound concentration were used to create dose-responses curves and EC50 values were calculated using non-linear regression curve fit in the Dotmatics' Studies Software. The EC50 values are reported.

[2] = tested on: Wnt activity (SW480 colon carcinoma cells stably expressing the Sp5-Luc reporter gene); experiment: Sp5-Luc reporter gene screening assay for Wnt activity; assay type: cell-based; conditions: Homo sapiens
From the text: The screening assay for Wnt activity is described as follows. Reporter cell lines can be generated by stably transducing cancer cell lines (e.g., colon cancer) or primary cells (e.g., IEC-6 intestinal cells) with a lentiviral construct that includes a Wnt-responsive promoter driving expression of the firefly luciferase gene.
SW480 colon carcinoma cells were transduced with a lentiviral vector expressing luciferase with a human Sp5 promoter consisting of a sequence of eight TCF/LEF binding sites. SW480 cells stably expressing the Sp5-Luc reporter gene and a hygromycin resistance gene were selected by treatment with 150 μg/ml of hygromycin for 7 days. These stably transduced SW480 cells were expanded in cell culture and used for all further screening activities. For Sp5-Luc reporter gene assays, the cells were plated at 10,000 cells/well in 96-well plates with growth medium containing 10% fetal calf serum and incubated overnight at 37° C. and 5% CO2. Each compound was dissolved in DMSO as a 10 mM stock in standard j-vials and used to prepare compound source plates in dose-response format with 3-fold serial dilutions and a 10 mM top concentration. Compound transfer from serially diluted source plates to assay plates containing the cells was accomplished using a pintool (Multimek 96, Beckman equipped with V&P Scientific FP1S50H pins) based liquid handling protocol. This protocol used a slotted pin to transfer 50 nl of compound from a source plate well to an assay plate well containing 50 μl of cells in growth medium. […] Control wells received 50 nl of DMSO treatment for normalization and calculating IC50 values. The treated cells were incubated at 37° C. and 5% CO2 for an additional forty-two hours. Following incubation, the growth medium was removed and 50 μl of BrightGlo luminescence reagent (Promega) was added to each well of the 96-well assay plates. The plates were placed on an orbital shaker for 5 min and then luminescence was quantified on the Victor3 (Perkin Elmer) plate reader. Readings were normalized to DMSO only treated cells, and normalized activities were utilized for IC50 calculations using the dose-response log (inhibitor) vs. response -variable slope (four parameters) nonlinear regression feature available in GraphPad Prism 5.0 or 6.0.

Row | SMILES | IC50 [2] | EC50 [1]
1 | CC(C)C(=O)Nc1cncc(-c2cnc3[nH]nc(-c4nc5c(N6CCN(C)CC6)ccnc5[nH]4)c3c2)c1 [Compound 192, N-(5-(3-(7-(4-Methylpiperazin-1-yl)-3H-imidazo[4,5-b]pyridin-2-yl)-1H-pyrazolo[3,4-b]pyridin-5-yl)pyridin-3-yl)isobutyramide] | > 10000 nM | ≤ 9 nM
2 | CN1CCN(c2ccnc3[nH]c(-c4n[nH]c5ncc(-c6cncc(CN7CCCCC7)c6)cc45)nc23)CC1 [Compound 198, 3-(7-(4-Methylpiperazin-1-yl)-3H-imidazo[4,5-b]pyridin-2-yl)-5-(5-(piperidin-1-ylmethyl)pyridin-3-yl)-1H-pyrazolo[3,4-b]pyridine] | > 10000 nM | 3040 nM
3 | c1cncc(-c2cnc3[nH]nc(-c4nc5cccnc5[nH]4)c3c2)c1 [Compound 212, 3-(3H-Imidazo[4,5-b]pyridin-2-yl)-5-(pyridin-3-yl)-1H-pyrazolo[3,4-b]pyridine] | 214 nM | 501 nM
4 | O=C(Cc1ccccc1)Nc1cncc(-c2cnc3[nH]nc(-c4nc5cccnc5[nH]4)c3c2)c1 [Compound 216, N-(5-(3-(3H-Imidazo[4,5-b]pyridin-2-yl)-1H-pyrazolo[3,4-b]pyridin-5-yl)pyridin-3-yl)-2-phenylacetamide] | 751 nM | ≥ 9990 nM
5 | O=C(Nc1cncc(-c2cnc3[nH]nc(-c4nc5cccnc5[nH]4)c3c2)c1)C1CCCCC1 [Compound 228, N-(5-(3-(3H-Imidazo[4,5-b]pyridin-2-yl)-1H-pyrazolo[3,4-b]pyridin-5-yl)pyridin-3-yl)cyclohexanecarboxamide] | > 10000 nM | ≤ 9 nM
6 | Cc1ccncc1-c1cnc2[nH]nc(-c3nc4c(-c5ccsc5)ccnc4[nH]3)c2c1 [Compound 237, 5-(4-Methylpyridin-3-yl)-3-(7-(thiophen-3-yl)-3H-imidazo[4,5-b]pyridin-2-yl)-1H-pyrazolo[3,4-b]pyridine] | 21.6 nM | 282 nM
7 | O=C(Nc1cncc(-c2cnc3[nH]nc(-c4nc5c(-c6ccsc6)ccnc5[nH]4)c3c2)c1)c1ccccc1 [Compound 243, N-(5-(3-(7-(Thiophen-3-yl)-3H-imidazo[4,5-b]pyridin-2-yl)-1H-pyrazolo[3,4-b]pyridin-5-yl)pyridin-3-yl)benzamide] | 33 nM | 113 nM
8 | c1cc(-c2ccoc2)c2nc(-c3n[nH]c4ncc(-c5cncc(CNCC6CCCC6)c5)cc34)[nH]c2n1 [Compound 282, 1-Cyclopentyl-N-((5-(3-(7-(furan-3-yl)-3H-imidazo[4,5-b]pyridin-2-yl)-1H-pyrazolo[3,4-b]pyridin-5-yl)pyridin-3-yl)methyl)methanamine] | > 10000 nM | ≥ 9990 nM

Now from value to compound, other results behind:

Row | IC50 [2] | SMILES | EC50 [1]
9 | > 10000 nM | CCNCc1cncc(-c2cnc3[nH]nc(-c4nc5c(-c6ccoc6)ccnc5[nH]4)c3c2)c1 [Compound 264, N-((5-(3-(7-(Furan-3-yl)-3H-imidazo[4,5-b]pyridin-2-yl)-1H-pyrazolo [3,4-b]pyridin-5-yl)pyridin-3-yl)methyl)ethanamine] | ≤ 9 nM
10 | 44.3 nM | CC(C)Nc1cncc(-c2cnc3[nH]nc(-c4nc5c(-c6ccoc6)ccnc5[nH]4)c3c2)c1 [Compound 270, 5-(3-(7-(Furan-3-yl)-3H-imidazo[4,5-b]pyridin-2-yl)-1H-pyrazolo[3,4-b]pyridin-5-yl)-N-isopropylpyridin-3-amine] | 786 nM
11 | > 10000 nM | CN(C)Cc1cncc(-c2cnc3[nH]nc(-c4nc5c(-c6cccs6)ccnc5[nH]4)c3c2)c1 [Compound 297, N,N-Dimethyl-1-(5-(3-(7-(thiophen-2-yl)-3H-imidazo[4,5-b]pyridin-2-yl)-1H-pyrazolo[3,4-b]pyridin-5-yl)pyridin-3-yl)methanamine] | ≥ 9990 nM
12 | 7.7 nM | O=C(Nc1cncc(-c2cnc3[nH]nc(-c4nc5c(-c6cccs6)ccnc5[nH]4)c3c2)c1)C1CC1 [Compound 303, N-(5-(3-(7-(Thiophen-2-yl)-3H-imidazo[4,5-b]pyridin-2-yl)-1H-pyrazolo[3,4-b]pyridin-5-yl)pyridin-3-yl)cyclopropanecarboxamide] | ≥ 9990 nM
